Experimental data as given in patent US11286228B2, “Stilbene derivative and method for preparing same” (Ozchela Inc., priority 2016, dated 2022).

biological target: cyclophilin; assay: Cis-trans isomerase inhibitory activity (chymotrypsin-coupled Suc-AAPF-pNA cleavage, absorbance 390 nm); assay type: biochemical; details: cyclophilin, chymotrypsin, Suc-AAPF-pNA; read-out: Test Example 1: cis-trans isomerase inhibitory activity (IC50)
From the text: Chymotrypsin cleaves a trans-type alanine-proline peptide bond. When Suc-AAPF-pNA (a peptide substrate) and chymotrypsin are mixed, the trans-type peptide substrate is cleaved and the cis-type peptide substrate remains. The remaining cis-type peptide substrate is converted into a trans form by a cis-trans isomerase and is then cleaved again by chymotrypsin. When the cis-trans isomerase is present, chymotrypsin is able to cleave a larger amount of trans-type peptide substrate within a predetermined period of time, from which the activity of the cis-trans isomerase may be determined. The amount of the cleaved trans-type peptide substrate is measured using absorbance at 390 nm. Cyclophilin has cis-trans isomerase activity, and accelerates the cleavage of trans-type peptide substrate by chymotrypsin. When the stilbene derivatives of the present invention were treated together with cyclophilin, the cleavage of the peptide substrate by chymotrypsin was not observed to accelerate. Thereby, the stilbene derivatives of the invention can be concluded to inhibit the activity of cyclophilin.

| Compound | IC50 |
| --- | --- |
| CCCCOC(=O)c1c(C)cccc1C=C(C)c1ccc(CC(C)(C)C)cc1 [Compound 83] | 20 to 200 nM |
| CCCCOC(=O)c1ccccc1C=C(C)c1ccc(CC(C)(C)C)cc1C [Compound 84] | 20 to 200 nM |
| CCCCOC(=O)c1cc(C)ccc1C=C(C)c1ccc(CC(C)(C)C)cc1 [Compound 85] | 20 to 200 nM |
| CCCCOC(=O)c1c(C=C(C)c2ccc(CC(C)(C)C)cc2)ccc(C)c1C [Compound 86] | 20 to 200 nM |
| CCCOC(=O)c1ccccc1C=C(C)c1ccc(CC(C)(C)C)cc1 [Compound 87] | 20 to 200 nM |
| CCCCCOC(=O)c1ccccc1C=C(C)c1ccc(CC(C)(C)C)cc1 [Compound 88] | 20 to 200 nM |
| CC(=Cc1ccccc1C(=O)OC(C)C)c1ccc(CC(C)(C)C)cc1 [Compound 89] | 20 to 200 nM |
| CC(=Cc1ccccc1C(=O)OCC1CCCCC1)c1ccc(CC(C)(C)C)cc1 [Compound 90] | 20 to 200 nM |
| CC(=Cc1ccccc1C(=O)OCC1CCCCN1)c1ccc(CC(C)(C)C)cc1 (stereo not drawn) [Compound 91] | 20 to 200 nM |
| CC(=Cc1ccccc1C(=O)OCc1ccccc1)c1ccc(CC(C)(C)C)cc1 [Compound 92] | 20 to 200 nM |
| CC(=Cc1ccccc1C(=O)OC1CCCCC1)c1ccc(CC(C)(C)C)cc1 [Compound 93] | 20 to 200 nM |
| CCCCOC(=O)c1ccccc1C=C(C)c1ccc(CC(C)CC)cc1 (stereo not drawn) [Compound 94] | 20 to 200 nM |
| CCCCOC(=O)c1ccccc1C=C(C)c1ccc(CC2CCCC2)cc1 [Compound 95] | 20 to 200 nM |
| CCCCOC(=O)c1ccccc1C=C(C)c1ccc(CC2CCCCC2)cc1 [Compound 96] | 20 to 200 nM |
| CCCCOC(=O)c1ccccc1C=C(C)c1ccc(Cc2ccccc2)cc1 [Compound 97] | 20 to 200 nM |
| CCCCOC(=O)c1ccccc1C=C(N)c1ccc(CC(C)(C)C)cc1 [Compound 98] | 20 to 200 nM |
| CCCCOC(=O)c1c(C)cccc1C=C(N)c1ccc(CC(C)(C)C)cc1 [Compound 99] | 20 to 200 nM |
| CCCCOC(=O)c1ccccc1C=C(N)c1ccc(CC(C)(C)C)cc1C [Compound 100] | 20 to 200 nM |
| CCCCOC(=O)c1cc(C)ccc1C=C(N)c1ccc(CC(C)(C)C)cc1 [Compound 101] | 20 to 200 nM |
| CCCCOC(=O)c1c(C=C(N)c2ccc(CC(C)(C)C)cc2)ccc(C)c1C [Compound 102] | 20 to 200 nM |
| CCCCCOC(=O)c1ccccc1C=C(N)c1ccc(CC(C)(C)C)cc1 [Compound 103] | 20 to 200 nM |
| CC(C)OC(=O)c1ccccc1C=C(N)c1ccc(CC(C)(C)C)cc1 [Compound 104] | 20 to 200 nM |
| CC(C)(C)Cc1ccc(C(N)=Cc2ccccc2C(=O)OCC2CCCCC2)cc1 [Compound 105] | 20 to 200 nM |
| CC(C)(C)Cc1ccc(C(N)=Cc2ccccc2C(=O)OCc2ccccc2)cc1 [Compound 106] | 20 to 200 nM |

tested on: hepatitis C virus; assay: Antiviral activity in HCV replicon cells (Renilla luciferase); assay type: cell-based; details: Hepatitis C virus, 72 h, read-out: Test Example 3: antiviral activity (EC50)
Procedure: The antiviral activity of the stilbene derivatives on hepatitis C virus was measured. The replicon cells that stably replicate the hepatitis C virus genome were attached to a culture plate and cultured in a CO2 incubator at 37° C. for 24 hr. The replicon cells cultured for one day were washed with a PBS solution, treated with the compounds of the present invention, and then cultured for 72 hr. The stilbene derivative-treated replicon cells were washed with a cold PBS solution and added with 20 μL of a cell lysis solution so that the cells were lysed in ice for 20 min. 100 μL of a Renilla luciferase substrate was added thereto, after which the luminescence thereof was measured and thus the amount of the hepatitis C virus genome was estimated. The amount of the hepatitis C virus genome in the stilbene derivative-treated replicon cells according to the present invention relative to the amount of the hepatitis C virus genome in dimethylsulfoxide (DMSO)-treated replicon cells is shown.
Compounds 1 to 155 of Tables 1 to 10 may be grouped as follows based on the antiviral activity (EC50) values: […]

| Compound | EC50 |
| --- | --- |
| CCCCOC(=O)c1ccccc1C=C(C)c1ccc(Cc2ccccc2)cc1 [Compound 97] | 500 to 5000 nM |

same assay, conditions: Hepatitis C virus; HCV replicon cells, 72 hr, Renilla luciferase, relative to DMSO; read-out: Test Example 3: antiviral activity (EC50)

| Compound | EC50 |
| --- | --- |
| CCCCOC(=O)c1c(C)cccc1C=C(C)c1ccc(CC(C)(C)C)cc1 [Compound 83] | 500 to 5000 nM |
| CCCCOC(=O)c1ccccc1C=C(C)c1ccc(CC(C)(C)C)cc1C [Compound 84] | 500 to 5000 nM |
| CCCCOC(=O)c1cc(C)ccc1C=C(C)c1ccc(CC(C)(C)C)cc1 [Compound 85] | 500 to 5000 nM |
| CCCCOC(=O)c1c(C=C(C)c2ccc(CC(C)(C)C)cc2)ccc(C)c1C [Compound 86] | 500 to 5000 nM |
| CCCOC(=O)c1ccccc1C=C(C)c1ccc(CC(C)(C)C)cc1 [Compound 87] | 500 to 5000 nM |
| CCCCCOC(=O)c1ccccc1C=C(C)c1ccc(CC(C)(C)C)cc1 [Compound 88] | 500 to 5000 nM |
| CC(=Cc1ccccc1C(=O)OC(C)C)c1ccc(CC(C)(C)C)cc1 [Compound 89] | 500 to 5000 nM |
| CC(=Cc1ccccc1C(=O)OCC1CCCCC1)c1ccc(CC(C)(C)C)cc1 [Compound 90] | 500 to 5000 nM |
| CC(=Cc1ccccc1C(=O)OCC1CCCCN1)c1ccc(CC(C)(C)C)cc1 (stereo not drawn) [Compound 91] | 500 to 5000 nM |
| CC(=Cc1ccccc1C(=O)OCc1ccccc1)c1ccc(CC(C)(C)C)cc1 [Compound 92] | 500 to 5000 nM |
| CC(=Cc1ccccc1C(=O)OC1CCCCC1)c1ccc(CC(C)(C)C)cc1 [Compound 93] | 500 to 5000 nM |
| CCCCOC(=O)c1ccccc1C=C(C)c1ccc(CC(C)CC)cc1 (stereo not drawn) [Compound 94] | 500 to 5000 nM |
| CCCCOC(=O)c1ccccc1C=C(C)c1ccc(CC2CCCC2)cc1 [Compound 95] | 500 to 5000 nM |
| CCCCOC(=O)c1ccccc1C=C(C)c1ccc(CC2CCCCC2)cc1 [Compound 96] | 500 to 5000 nM |
| CCCCOC(=O)c1ccccc1C=C(N)c1ccc(CC(C)(C)C)cc1 [Compound 98] | 500 to 5000 nM |
| CCCCOC(=O)c1c(C)cccc1C=C(N)c1ccc(CC(C)(C)C)cc1 [Compound 99] | 500 to 5000 nM |
| CCCCOC(=O)c1ccccc1C=C(N)c1ccc(CC(C)(C)C)cc1C [Compound 100] | 500 to 5000 nM |
| CCCCOC(=O)c1cc(C)ccc1C=C(N)c1ccc(CC(C)(C)C)cc1 [Compound 101] | 500 to 5000 nM |
| CCCCOC(=O)c1c(C=C(N)c2ccc(CC(C)(C)C)cc2)ccc(C)c1C [Compound 102] | 500 to 5000 nM |
| CCCCCOC(=O)c1ccccc1C=C(N)c1ccc(CC(C)(C)C)cc1 [Compound 103] | 500 to 5000 nM |
| CC(C)OC(=O)c1ccccc1C=C(N)c1ccc(CC(C)(C)C)cc1 [Compound 104] | 500 to 5000 nM |
| CC(C)(C)Cc1ccc(C(N)=Cc2ccccc2C(=O)OCC2CCCCC2)cc1 [Compound 105] | 500 to 5000 nM |
| CC(C)(C)Cc1ccc(C(N)=Cc2ccccc2C(=O)OCc2ccccc2)cc1 [Compound 106] | 500 to 5000 nM |

tested on: mitochondria obtained from hepatocytes; assay: Inhibitory activity on calcium-induced mitochondrial swelling (absorbance 520 nm); details: Hepatocyte; calcium-induced swelling of extracted mitochondria; read-out: Test Example 4: inhibiting mitochondrial swelling (IC50)
From the text: Cyclophilin is a key protein for forming permeability transition pores (PTP) in mitochondria. When permeability transition pores are formed, mitochondria swell, whereby the outer membrane thereof ruptures and thus cell death progresses. Such mitochondrial dysfunction causes many diseases including neurodegenerative diseases, cancer, and the like. Cyclosporine, a known cyclophilin inhibitor, is capable of preventing the formation of permeability transition pores to thus suppress mitochondrial swelling.
The mitochondrial swelling test was performed as follows. Specifically, the hepatocytes were disrupted using a Dounce tissue grinder. The disrupted cells were centrifuged at 700×g for 10 min and the supernatant was transferred into a new tube. The supernatant was centrifuged at 12,000×g for 15 min, thereby obtaining mitochondria.
When the extracted mitochondria were added with calcium, they swelled, which may be observed by measuring the absorbance at 520 nm. The stilbene derivatives are effective at inhibiting mitochondrial swelling due to calcium.
The activity of Compounds 1 to 155 of Tables 1 to 10 on inhibiting mitochondrial swelling may be determined based on IC50 values, and may be grouped as follows: […]

| Compound | IC50 |
| --- | --- |
| CCCCOC(=O)c1c(C)cccc1C=C(C)c1ccc(CC(C)(C)C)cc1 [Compound 83] | 5 to 50 µM |
| CCCCOC(=O)c1ccccc1C=C(C)c1ccc(CC(C)(C)C)cc1C [Compound 84] | 5 to 50 µM |
| CCCCOC(=O)c1cc(C)ccc1C=C(C)c1ccc(CC(C)(C)C)cc1 [Compound 85] | 5 to 50 µM |
| CCCCOC(=O)c1c(C=C(C)c2ccc(CC(C)(C)C)cc2)ccc(C)c1C [Compound 86] | 5 to 50 µM |
| CCCOC(=O)c1ccccc1C=C(C)c1ccc(CC(C)(C)C)cc1 [Compound 87] | 5 to 50 µM |
| CCCCCOC(=O)c1ccccc1C=C(C)c1ccc(CC(C)(C)C)cc1 [Compound 88] | 5 to 50 µM |
| CC(=Cc1ccccc1C(=O)OC(C)C)c1ccc(CC(C)(C)C)cc1 [Compound 89] | 5 to 50 µM |
| CC(=Cc1ccccc1C(=O)OCC1CCCCC1)c1ccc(CC(C)(C)C)cc1 [Compound 90] | 5 to 50 µM |
| CC(=Cc1ccccc1C(=O)OCC1CCCCN1)c1ccc(CC(C)(C)C)cc1 (stereo not drawn) [Compound 91] | 5 to 50 µM |
| CC(=Cc1ccccc1C(=O)OCc1ccccc1)c1ccc(CC(C)(C)C)cc1 [Compound 92] | 5 to 50 µM |
| CC(=Cc1ccccc1C(=O)OC1CCCCC1)c1ccc(CC(C)(C)C)cc1 [Compound 93] | 5 to 50 µM |
| CCCCOC(=O)c1ccccc1C=C(C)c1ccc(CC(C)CC)cc1 (stereo not drawn) [Compound 94] | 5 to 50 µM |
| CCCCOC(=O)c1ccccc1C=C(C)c1ccc(CC2CCCC2)cc1 [Compound 95] | 5 to 50 µM |
| CCCCOC(=O)c1ccccc1C=C(C)c1ccc(CC2CCCCC2)cc1 [Compound 96] | 5 to 50 µM |
| CCCCOC(=O)c1ccccc1C=C(C)c1ccc(Cc2ccccc2)cc1 [Compound 97] | 5 to 50 µM |
| CCCCOC(=O)c1ccccc1C=C(N)c1ccc(CC(C)(C)C)cc1 [Compound 98] | 5 to 50 µM |
| CCCCOC(=O)c1c(C)cccc1C=C(N)c1ccc(CC(C)(C)C)cc1 [Compound 99] | 5 to 50 µM |
| CCCCOC(=O)c1ccccc1C=C(N)c1ccc(CC(C)(C)C)cc1C [Compound 100] | 5 to 50 µM |
| CCCCOC(=O)c1cc(C)ccc1C=C(N)c1ccc(CC(C)(C)C)cc1 [Compound 101] | 5 to 50 µM |
| CCCCOC(=O)c1c(C=C(N)c2ccc(CC(C)(C)C)cc2)ccc(C)c1C [Compound 102] | 5 to 50 µM |
| CCCCCOC(=O)c1ccccc1C=C(N)c1ccc(CC(C)(C)C)cc1 [Compound 103] | 5 to 50 µM |
| CC(C)OC(=O)c1ccccc1C=C(N)c1ccc(CC(C)(C)C)cc1 [Compound 104] | 5 to 50 µM |
| CC(C)(C)Cc1ccc(C(N)=Cc2ccccc2C(=O)OCC2CCCCC2)cc1 [Compound 105] | 5 to 50 µM |
| CC(C)(C)Cc1ccc(C(N)=Cc2ccccc2C(=O)OCc2ccccc2)cc1 [Compound 106] | 5 to 50 µM |
